Tests used:
[1] = target: T1, Jack Bean α-mannosidase (Canavalia ensiformis, UniProt C0HJB3); experiment: Inhibition assays on Jack-Bean α-mannosidase (p-nitrophenyl-α-D-mannopyranoside hydrolysis, Dixon and Lineweaver–Burk); assay type: biochemical
T1 construct: purchased Sigma Aldrich, St. Louis, MO, USA
T1 sequence (C0HJB3 1-981): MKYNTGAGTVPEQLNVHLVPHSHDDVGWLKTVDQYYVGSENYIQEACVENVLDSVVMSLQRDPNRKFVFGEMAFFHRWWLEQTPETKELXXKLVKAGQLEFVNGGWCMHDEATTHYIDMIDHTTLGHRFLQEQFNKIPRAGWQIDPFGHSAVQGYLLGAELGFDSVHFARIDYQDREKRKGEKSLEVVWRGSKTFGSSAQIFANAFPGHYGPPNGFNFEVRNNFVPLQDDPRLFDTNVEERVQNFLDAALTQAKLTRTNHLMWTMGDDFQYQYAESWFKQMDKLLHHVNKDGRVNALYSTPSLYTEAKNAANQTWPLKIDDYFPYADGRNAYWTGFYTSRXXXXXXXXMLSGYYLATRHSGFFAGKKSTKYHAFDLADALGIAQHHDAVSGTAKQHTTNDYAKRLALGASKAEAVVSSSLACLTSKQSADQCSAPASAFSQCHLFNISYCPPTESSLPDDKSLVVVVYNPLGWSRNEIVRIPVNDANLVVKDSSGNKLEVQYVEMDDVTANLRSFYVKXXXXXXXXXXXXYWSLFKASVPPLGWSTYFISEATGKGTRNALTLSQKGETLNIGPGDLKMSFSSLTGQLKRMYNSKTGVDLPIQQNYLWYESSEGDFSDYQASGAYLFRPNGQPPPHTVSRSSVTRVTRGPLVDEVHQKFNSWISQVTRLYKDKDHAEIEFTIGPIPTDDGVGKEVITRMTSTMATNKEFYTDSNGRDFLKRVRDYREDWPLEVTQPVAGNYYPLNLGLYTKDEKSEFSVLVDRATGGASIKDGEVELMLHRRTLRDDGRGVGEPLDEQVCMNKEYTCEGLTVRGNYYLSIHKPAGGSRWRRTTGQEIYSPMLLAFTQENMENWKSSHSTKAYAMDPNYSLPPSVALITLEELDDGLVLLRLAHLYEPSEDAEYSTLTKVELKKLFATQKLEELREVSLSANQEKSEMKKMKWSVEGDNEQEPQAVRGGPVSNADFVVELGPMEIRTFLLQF
Description: p-nitrophenyl-α-D-mannopyranoside and α-mannosidase (EC 3.2.1.24, from Jack Bean) were purchased from Sigma Aldrich, St. Louis, MO, USA. Inhibition constants were determined spectrophotometrically by measuring the residual hydrolytic activities of the α-mannosidase against p-nitrophenyl-α-D-mannopyranoside in the presence and absence of an inhibitor. Each well was filled with a total volume of 100 µL, containing 0.2 M acetate buffer pH 5, inhibitor, substrate and enzyme. All kinetics were performed between 25 °C and 27 °C and started by enzyme addition. After 30–50 min of incubation, the reaction was quenched by addition of 100 µL of 1M Na2CO3. The absorbance of the resulting solution was determined at 405 nm. Ki values were determined in triplicate, using the Dixon and Lineweaver–Burk graphical methods within Microsoft Excel. Stock solutions of inhibitors were prepared with DMSO/buffer for final well DMSO content under 5%. The stability of the enzyme in the presence of the same concentrations of DMSO was controlled and enzyme activity was unaffected.

[2] = Isothermal titration calorimetry of iodide binding to bambusuril; details: in water, ITC
Description: ITC measurements were performed with a VP-ITC microcalorimeter (Microcal, GEHealthcare). Experiments were carried out in water and in a solution of K2HPO4 (1.5 mM) in mili-Q water at 298.15 ± 0.1 K. Anion binding to BU was investigated via a classical isothermal titration experiment (10 µL additions) and a single injection method (SIM). Injection of sodium iodide solution was added automatically to the BU solution present in the calorimeter cell while stirring at 307 rpm. Integrated heat effects were analyzed by non-linear regression using a single-site binding model (Microcal Origin 7). The experimental data fitted to a theorical titration curve, giving the association constant Ka, the enthalpy of binding ΔH° and the entropy ΔS°. The free energy ΔG° was calculated from the equation: ΔG° = ΔH° − TΔS°, where T is the absolute temperature. The first smaller addition (2 µL), which was used to compensate for diffusion of the guest from the injector during equilibration, was discarded prior to data fitting.
Figure S1. Isothermal titration calorimetry of I- binding to (DNJ-C6)12BU[6] 6 in H2O.
Top: Data were obtained from the sequential injections of 10µL of guest solution (0.6 mM NaI) to BU
6 (0.05 mM). Bottom: Plot of the total heat released as a function of the total ligand concentration
for the titration shown upper.
(1 picture or pasted object on this page, not shown here)

In the case of `O=C1N(Cc2cn(CCCCCCN3C[C@H](O)[C@@H](O)[C@H](O)[C@H]3CO)nn2)C2C(N1Cc1cn(CCCCCCN3C[C@H](O)[C@@H](O)[C@H](O)[C@H]3CO)nn1)N1CN3C(=O)N(CN4C(=O)N(CN5C(=O)N(CN6C(=O)N(CN7C(=O)N(CN2C1=O)C1C7N(Cc2cn(CCCCCCN7C[C@H](O)[C@@H](O)[C@H](O)[C@H]7CO)nn2)C(=O)N1Cc1cn(CCCCCCN2C[C@H](O)[C@@H](O)[C@H](O)[C@H]2CO)nn1)C1C6N(Cc2cn(CCCCCCN6C[C@H](O)[C@@H](O)[C@H](O)[C@H]6CO)nn2)C(=O)N1Cc1cn(CCCCCCN2C[C@H](O)[C@@H](O)[C@H](O)[C@H]2CO)nn1)C1C5N(Cc2cn(CCCCCCN5C[C@H](O)[C@@H](O)[C@H](O)[C@H]5CO)nn2)C(=O)N1Cc1cn(CCCCCCN2C[C@H](O)[C@@H](O)[C@H](O)[C@H]2CO)nn1)C1C4N(Cc2cn(CCCCCCN4C[C@H](O)[C@@H](O)[C@H](O)[C@H]4CO)nn2)C(=O)N1Cc1cn(CCCCCCN2C[C@H](O)[C@@H](O)[C@H](O)[C@H]2CO)nn1)C1C3N(Cc2cn(CCCCCCN3C[C@H](O)[C@@H](O)[C@H](O)[C@H]3CO)nn2)C(=O)N1Cc1cn(CCCCCCN2C[C@H](O)[C@@H](O)[C@H](O)[C@H]2CO)nn1` (some centres unmarked) [Compound 6, (DNJ-C6)12BU[6]], the “Inhibition Mode” value [1] is reported as “mixed”, the Ki ([1]; 0.2 M acetate buffer pH 5, 25-27 °C, for mixed inhibitors the first value of the cell (Ki)) is reported as 68.2 µM and the “Ki'” value ([1]; mixed inhibition, second value of the cell (Ki' in supplement)) is reported as 147 ± 21 µM. The “Rp (relative potency)” value ([1]; rp = Ki (monovalent reference)/Ki (neoglycocluster)) was 4.7 and the “Ka (iodide)” value [2] was 480000 M⁻¹.

— article PMC9330389, “Bambus[4,6]urils as Dual Scaffolds for Multivalent Iminosugar Presentation and Ion Transport: Access to Unprecedented Glycosidase-Directed Anion Caging Agents” (Molecules, 2022)
